# Patent US9550764B2, “Fused heterocyclic compounds and their use” (The Institute of Cancer Research: Royal Cancer Hospital, priority 2012, dated 2017)
# Read-outs that look alike come from different tables or passages of the source.
# Tests used:
# SMOV2 (A) = assay: SRB proliferation assay, SMOV2 (PPM1D amplified); type: cell-based; conditions: Homo sapiens, SMOV2, PP1MD amplified cell line (A)
# Excerpt: (§1) All cell lines were obtained from ATCC except KPL1 which was obtained from Leibniz Institute DSMZ-German Collection of Microorganisms and Cell Cultures, and SMOV2 which was obtained from Dr. Hiroaki Itamochi (Tottori University School of Medicine, Yonago, Japan; see also: ‘Establishment and characterization of human ovarian clear cell adenocarcinoma cell line (SMOV-2), and its cytotoxity by anticancer agents’, Yonamine K at al., Hum Cell., 1999, 12(3), 139-48; and ‘PPM1D Is a Potential Therapeutic Target in Ovarian Clear Cell Carcinoma’, David S. P. Tan et al., Clin Cancer Res, 2009, 15, 2269).
# (§2) Representative compounds were assessed in a sulforhodamine B (SRB) proliferation assay in the cell lines shown in the Tables below, according to the following general procedure:
# (§3) Cells were seeded in a 96 well plate at a number optimized for each cell line as known in the art; for example as described in Viachai et al, Nature Protocols, 2006, 1 1112-1116. Two fold dilutions of the compounds to be tested were made in culture medium so that, when diluted 5×, the final concentration in the wells was from 50 μM to 0.000191 μM (19 concentrations). A day after seeding the cells in 96 well plates, 25 μl of the compound diluted in the culture medium was added to 100 μl of the cells and incubated at 37° C. and 5% CO2 for 3 or 5 more days as required. After this time, cells were fixed by adding 10% ice cold TCA (in H2O) to 3% final concentration in the wells and by incubating at 4° C. for at least 2 h. Plates were washed 4 times in H2O and allowed to dry in the air. Added 100 μl of 0.057% SRB solution to the dried plates and incubated at room temperature for at least 30 min. Removed SRB solution from the plates and washed four times with 1% acetic acid. Plates were left overnight to dry in the air followed by addition of 100 μl of 10 mM Tris pH 10.5 to each well of the dried plates and incubation on a shaker for 5 min to solubilize the SRB. Optical density was measured at wave length of 490 nm using a plate reader and analysis performed to measure the GI50 using GraphPad PRISM.
# TOV21G (NA) = assay: SRB proliferation assay, TOV21G (non-amplified control); type: cell-based; conditions: 5-day incubation, control not amplified (NA)
# Excerpt: as §1, §2, §3
# [1] = 72 h, 3-day incubation, read-out: GI50 3-day SMOV2 (A) SRB
# [2] = 120 h, 5-day incubation, read-out: GI50 5-day SMOV2 (A) SRB
SMILES,GI50 (SMOV2 (A); [1]) [µM],GI50 (SMOV2 (A); [2]) [µM],"GI50 (TOV21G (NA); Homo sapiens, 120 h) [µM]",GI50 (TOV21G (NA)) [µM]
"O=c1[nH]c2ccc(-c3csc(-c4ccc(F)cc4F)n3)cc2o1 [Compound 11, 6-(2-(2,4-difluorophenyl)thiazol-4-yl)benzo[d]oxazol-2(3H)-one]",0.007,0.00075,> 10,–
"Cc1c(-c2nc(-c3ccc4[nH]c(=O)oc4c3)cs2)ccc(F)c1F [Compound 27, 6-(2-(3,4-difluoro-2-methylphenyl)thiazol-4-yl)benzo[d]oxazol-2(3H)-one]",0.0012,0.0002,> 10,–
"O=c1[nH]c2ccc(-c3csc(-c4ccc(F)cc4C4CC4)n3)cc2o1 [Compound 6, 6-(2-(2-cyclopropyl-4-fluorophenyl)thiazol-4-yl)benzo[d]oxazol-2(3H)-one]",0.2,–,–,–
"Cc1cc(F)ccc1-c1nc(-c2ccc3c(c2)CC(=O)N3)cs1 [Compound 3, 5-(2-(4-fluoro-2-methylphenyl)thiazol-4-yl)indolin-2-one]",0.0012,0.0005,> 10,–
"O=c1[nH]c2ccc(-c3csc(-c4ccc(F)cc4CN4CCOCC4)n3)cc2o1 [Compound 15, 6-(2-(4-fluoro-2-(morpholinomethyl)phenyl)thiazol-4-yl)benzo[d]oxazol-2(3H)-one]",0.52,–,–,–
"CNCc1cc(F)ccc1-c1nc(-c2ccc3[nH]c(=O)oc3c2)cs1 [Compound 13, 6-(2-(4-fluoro-2-((methylamino)methyl)phenyl)thiazol-4-yl)benzo[d]oxazol-2(3H)-one]",0.032,0.006,1.6,–
"COCCOCc1cc(F)ccc1-c1nc(-c2ccc3[nH]c(=O)oc3c2)cs1 [Compound 17, 6-(2-(4-fluoro-2-((2-methoxyethoxy)methyl)phenyl)thiazol-4-yl)benzo[d]oxazol-2(3H)-one]",0.0012,0.0001,9.4,–
"O=c1[nH]c2ccc(-c3csc(-c4ccc(F)c(F)c4)n3)cc2o1 [Compound 24, 6-(2-(3,4-difluorophenyl)thiazol-4-yl)benzo[d]oxazol-2(3H)-one]",0.29,–,–,–
"CN(C)CCc1cc(F)ccc1-c1nc(-c2ccc3[nH]c(=O)oc3c2)cs1 [Compound 16, 6-(2-(2-(2-(dimethylamino)ethyl)-4-fluorophenyl)thiazol-4-yl)benzo[d]oxazol-2(3H)-one]",0.04,0.006,9.2,–
"O=c1[nH]c2ccc(-c3csc(-c4ccc(F)cc4COCCN4CCCC4)n3)cc2o1 [Compound 20, 6-(2-(4-fluoro-2-((2-(pyrrolidin-1-yl)ethoxy)methyl)phenyl)thiazol-4-yl)benzo[d]oxazol-2(3H)-one]",0.013,0.011,1.5,–
"O=c1[nH]c2ccc(-c3csc(-c4ccc(F)cc4CCO)n3)cc2o1 [Compound 9, 6-(2-(4-fluoro-2-(2-hydroxyethyl)phenyl)thiazol-4-yl)benzo[d]oxazol-2(3H)-one]",0.007,0.0006,> 10,–
"O=c1[nH]c2ccc(-c3csc(-c4ccc(F)cc4COCCO)n3)cc2o1 [Compound 18, 6-(2-(4-fluoro-2-((2-hydroxyethoxy)methyl)phenyl)thiazol-4-yl)benzo[d]oxazol-2(3H)-one]",0.0017,0.0009,9.5,–
"Cc1cc(F)ccc1-c1nc(-c2ccc3[nH]c(=O)[nH]c3c2)cs1 [Compound 4, 5-(2-(4-fluoro-2-methylphenyl)thiazol-4-yl)-1H-benzo[d]imidazol-2(3H)-one]",0.0002,0.0001,> 10,–
"Cc1cc(F)cc(C)c1-c1nc(-c2ccc3[nH]c(=O)oc3c2)cs1 [Compound 25, 6-(2-(4-fluoro-2,6-dimethylphenyl)thiazol-4-yl)benzo[d]oxazol-2(3H)-one]",0.5,–,–,–
"NCCOCc1cc(F)ccc1-c1nc(-c2ccc3[nH]c(=O)oc3c2)cs1 [Compound 19, 6-(2-(2-((2-aminoethoxy)methyl)-4-fluorophenyl)thiazol-4-yl)benzo[d]oxazol-2(3H)-one]",0.0014,0.005,1.2,1.7
"O=c1[nH]c2ccc(-c3csc(-c4ccc(F)cc4COCc4ccccc4)n3)cc2o1 [Compound 10, 6-(2-(2-((benzyloxy)methyl)-4-fluorophenyl)thiazol-4-yl)benzo[d]oxazol-2(3H)-one]",0.3,–,–,–

SMILES,GI50 (SMOV2 (A); [1]) [µM],GI50 (SMOV2 (A); [2]) [µM],"GI50 (TOV21G (NA); Homo sapiens, 120 h) [µM]",GI50 (TOV21G (NA)) [µM]
"C=CCc1cc(F)ccc1-c1nc(-c2ccc3[nH]c(=O)oc3c2)cs1 [Compound 7, 6-(2-(2-allyl-4-fluorophenyl)thiazol-4-yl)benzo[d]oxazol-2(3H)-one]",0.077,–,–,–
"O=c1[nH]c2ccc(-c3csc(-c4ccc(F)cc4CO)n3)cc2o1 [Compound 8, 6-(2-(4-fluoro-2-(hydroxymethyl)phenyl)thiazol-4-yl)benzo[d]oxazol-2(3H)-one]",0.023,0.0001,9.2,–
"O=c1[nH]c2ccc(-c3csc(-c4ccc(F)cc4CF)n3)cc2o1 [Compound 12, 6-(2-(4-fluoro-2-(fluoromethyl)phenyl)thiazol-4-yl)benzo[d]oxazol-2(3H)-one]",0.002,0.0003,5.2,–
"O=C1Cc2cc(-c3csc(-c4ccc(F)cc4F)n3)c(Cl)cc2N1 [Compound 29, 6-chloro-5-(2-(2,4-difluorophenyl)thiazol-4-yl)indolin-2-one]",1.9,–,–,–
"Cc1cc(-c2nc(-c3ccc4[nH]c(=O)oc4c3)cs2)ccc1F [Compound 23, 6-(2-(4-fluoro-3-methylphenyl)thiazol-4-yl)benzo[d]oxazol-2(3H)-one]",0.25,–,–,–
"CN(C)Cc1cc(F)ccc1-c1nc(-c2ccc3[nH]c(=O)oc3c2)cs1 [Compound 14, 6-(2-(2-((dimethylamino)methyl)-4-fluorophenyl)thiazol-4-yl)benzo[d]oxazol-2(3H)-one]",0.01,0.002,1.6,–
"Cc1cc(F)ccc1-c1nc(-c2ccc3[nH]c(=O)oc3c2)cs1 [Compound 2, 6-(2-(4-fluoro-2-methylphenyl)thiazol-4-yl)benzo[d]oxazol-2(3H)-one]",0.0016,0.0005,> 10,–
"O=c1[nH]c2ccc(-c3csc(-c4ccc(F)cc4)n3)cc2o1 [Compound 1, 6-(2-(4-fluorophenyl)thiazol-4-yl)benzo[d]oxazol-2(3H)-one]",0.009,0.0011,> 10,–
"Cc1cc(F)ccc1-c1cccc(-c2ccc3[nH]c(=O)oc3c2)n1 [Compound 31, 6-(6-(4-fluoro-2-methylphenyl)pyridin-2-yl)benzo[d]oxazol-2(3H)-one]",> 10,–,–,–
"CCc1cc(F)ccc1-c1nc(-c2ccc3[nH]c(=O)oc3c2)cs1 [Compound 5, 6-(2-(2-ethyl-4-fluorophenyl)thiazol-4-yl)benzo[d]oxazol-2(3H)-one]",0.013,0.0097,> 10,–
"O=c1[nH]c2ccc(-c3cccc(-c4ccc(F)cc4)n3)cc2o1 [Compound 30, 6-(6-(4-fluorophenyl)pyridin-2-yl)benzo[d]oxazol-2(3H)-one]",0.28,0.035,2.7,–
"Cc1c(F)ccc(-c2nc(-c3ccc4[nH]c(=O)oc4c3)cs2)c1F [Compound 26, 6-(2-(2,4-difluoro-3-methylphenyl)thiazol-4-yl)benzo[d]oxazol-2(3H)-one]",> 10,–,–,–
"CCc1cc(F)ccc1-c1nc(-c2ccc3[nH]c(=O)[nH]c3c2)cs1 [Compound 22, 5-(2-(2-ethyl-4-fluorophenyl)thiazol-4-yl)-1H-benzo[d]imidazol-2(3H)-one]",0.00038,0.0002,0.66,–
"Cc1cc(F)ccc1-c1nc(-c2ccc3[nH]c(=O)n(CCN(C)C)c3c2)cs1 [Compound 21, 1-(2-(dimethylamino)ethyl)-6-(2-(4-fluoro-2-methylphenyl)thiazol-4-yl)-1H-benzo[d]imidazol-2(3H)-one]",0.008,0.0001,7.2,–
"O=C1Cc2cc(-c3csc(-c4ccc(F)cc4)n3)c(Cl)cc2N1 [Compound 28, 6-chloro-5-(2-(4-fluorophenyl)thiazol-4-yl)indolin-2-one]",0.093,–,–,–
